Data on 10 compounds can be found in ChEMBL document CHEMBL1201862, “PubChem BioAssay data set” (2004).

SMILES strings stand for the structures.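 Values below derive from 48-hour exposures of cells grown in 96-well plates, with endpoints linearly interpolated between the two concentrations bracketing the appropriate inhibition level. Abbreviation: GI50, concentration required for 50% inhibition of growth.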 Calls of active or inactive are those of the source. Rule as the data show it: active = GI50 up to about 1.1 µM and inactive = higher. A value given as a limit tells only on which side of the number the result lay.

Among the test systems are KM12; NCI-H23; DU-145; SK-OV-3; IGROV-1; HT-29; A549; TK-10; HCT-15; SF-539; MDA-N; SN12C; HOP-92; SW-620; HL-60; PC-3; UACC-62; UACC-257; SNB-75; SR.
Assay in all cases: NCI tumour cell line growth inhibition, 48 h

Take `COC(=O)C1Cc2ccc(O)c(O)c2CN1` (stereo not given): the GI50 in the assay with KM12 is 69.3 µM (inactive); in the assay with NCI-H23 it was 16.6 µM (inactive); in the assay with DU-145 it was 30.7 µM (inactive); in the assay on SK-OV-3, > 100 µM (inactive); in the assay on IGROV-1, 35.8 µM (inactive); in the assay on HT-29 it was 23.3 µM (inactive). In addition, the GI50 in the assay with A549 was > 100 µM (inactive); in the assay on TK-10 it was > 100 µM (inactive); in the assay with HCT-15 it was 29.7 µM; in the assay with SF-539, 18.4 µM (inactive); with MDA-N, 16.4 µM (inactive); with SN12C, 16.4 µM (inactive). The GI50 in the assay with HOP-92 was 26.4 µM (inactive); in the assay on SW-620, 21.3 µM (inactive); in the assay with HL-60 it was 25.8 µM (inactive); with PC-3 it was 26.1 µM (inactive); with UACC-62, 19.7 µM (inactive); with UACC-257, 15.5 µM (inactive). Further, the GI50 is 19.5 µM (inactive) in the assay with SNB-75 and 29.1 µM (inactive) in the assay with SR.

Consider `Nc1c2c(nc3ccccc13)CCCc1ccccc1-2`, for which the GI50 with KM12 is 13.1 µM (inactive); in the assay with NCI-H23 it was 16.3 µM (inactive); with DU-145, 21.5 µM (inactive); with SK-OV-3 it was 33.5 µM (inactive); with IGROV-1, 9.46 µM (inactive); in the assay on HT-29, 4.53 µM (inactive). Moreover, the GI50 with A549 was 16.3 µM (inactive); with TK-10 it was 6.08 µM (inactive); with HCT-15 it was 13.8 µM; in the assay with SF-539, 8.83 µM (inactive); in the assay with MDA-N, 4.17 µM (inactive); in the assay with SN12C it was 12.8 µM (inactive). Besides, the GI50 in the assay with HOP-92 was 10.1 µM (inactive); in the assay with SW-620 it was 5.94 µM (inactive); in the assay with HL-60 it was 5.9 µM (inactive); in the assay with PC-3, 14.3 µM (inactive); with UACC-62 it was 6.7 µM (inactive); in the assay with UACC-257, 12.7 µM (inactive). The figures for the GI50 with SNB-75 and with SR were 13.5 µM (inactive) and 7.35 µM (inactive), respectively.

On to `O=C1CCC(CCc2nc3ccccc3[nH]2)(c2ccccc2)C(=O)N1` (stereo not given), for which the GI50 was > 100 µM (inactive) in the assay on KM12; > 100 µM (inactive) with NCI-H23; > 100 µM (inactive) in the assay on DU-145; > 100 µM (inactive) in the assay on SK-OV-3; 64 µM (inactive) in the assay with IGROV-1; > 100 µM (inactive) with HT-29. For the same compound, the GI50 is > 100 µM (inactive) in the assay on A549; > 100 µM (inactive) in the assay with TK-10; greater than 100 µM in the assay on HCT-15; > 100 µM (inactive) in the assay with SF-539; > 100 µM (inactive) in the assay with MDA-N; > 100 µM (inactive) in the assay with SN12C. In addition, the GI50 in the assay with HOP-92 is 83.6 µM (inactive); with SW-620, > 100 µM (inactive); with HL-60, > 100 µM (inactive); with PC-3 it was > 100 µM (inactive); in the assay on UACC-62, > 100 µM (inactive); with UACC-257 it was > 100 µM (inactive). The GI50 with SNB-75 was 86.1 µM (inactive); in the assay with SR, > 100 µM (inactive).

Regarding `CSc1ccc(NC(=S)NN(C)C)cc1`, the GI50 in the assay on KM12, in the assay on NCI-H23, with DU-145, with SK-OV-3, in the assay on IGROV-1 and in the assay with HT-29 was > 10 µM (inactive) in each case. For the same compound, the GI50 in the assay with A549 was > 10 µM (inactive); in the assay on TK-10, > 10 µM (inactive); in the assay on HCT-15, greater than 10 µM; in the assay on SF-539 it was > 10 µM (inactive); in the assay with MDA-N, > 10 µM (inactive); in the assay on SN12C, > 10 µM (inactive). The GI50 in the assay with HOP-92, in the assay with SW-620, with HL-60, in the assay with PC-3, in the assay on UACC-62 and with UACC-257 was > 10 µM (inactive) in each case. Further, the GI50 in the assay on SNB-75 and in the assay with SR was > 10 µM (inactive) in each case.

With `CS[C@]12C(=O)C[C@@]3(C)[C@@H](CC[C@]3(O)C(=O)CO)[C@@H]1CCC1=CC(=O)CC[C@@]12C`, the GI50 was > 100 µM (inactive) with KM12; > 100 µM (inactive) with NCI-H23; > 100 µM (inactive) in the assay on DU-145; > 100 µM (inactive) with SK-OV-3; > 100 µM (inactive) with IGROV-1; 88.5 µM (inactive) in the assay with HT-29. The GI50 in the assay on A549 is > 100 µM (inactive); in the assay on TK-10, > 100 µM (inactive); in the assay on HCT-15 it was 60.7 µM; in the assay on SF-539, > 100 µM (inactive); with MDA-N, 26.6 µM (inactive); in the assay with SN12C, > 100 µM (inactive). Moreover, the GI50 is > 100 µM (inactive) in the assay on HOP-92; 68.5 µM (inactive) in the assay with SW-620; 35.3 µM (inactive) in the assay with HL-60; 55 µM (inactive) in the assay with PC-3; > 100 µM (inactive) in the assay with UACC-62; > 100 µM (inactive) in the assay on UACC-257. Besides, the GI50 is > 100 µM (inactive) in the assay with SNB-75 and 35 µM (inactive) in the assay with SR.

Regarding `CCOC(=O)c1nc2cc(F)cc(F)c2[nH]c1=O`, the GI50 in the assay with KM12, in the assay with NCI-H23, in the assay on DU-145, in the assay on SK-OV-3, in the assay with IGROV-1 and in the assay with HT-29 was > 100 µM (inactive) in each case. Also, the GI50 in the assay with A549 is > 100 µM (inactive); with TK-10 it was > 100 µM (inactive); in the assay on HCT-15 it was greater than 100 µM; in the assay with SF-539, > 100 µM (inactive); in the assay with MDA-N, > 100 µM (inactive); in the assay on SN12C, > 100 µM (inactive). Also, the GI50 in the assay with HOP-92, in the assay on SW-620, with HL-60, in the assay on PC-3, in the assay on UACC-62 and in the assay with UACC-257 was > 100 µM (inactive) each time. Further, the GI50 in the assay on SNB-75 and in the assay with SR was > 100 µM (inactive) each time.

Consider `O=CNC(Cc1c[nH]cn1)C(=O)O` (stereo not given), for which the GI50 in the assay on KM12, in the assay on NCI-H23, in the assay on DU-145, with SK-OV-3, in the assay with IGROV-1 and with HT-29 was > 100 µM (inactive) throughout. Moreover, the GI50 is > 100 µM (inactive) in the assay on A549; > 100 µM (inactive) with TK-10; greater than 100 µM in the assay on HCT-15; > 100 µM (inactive) in the assay on SF-539; > 100 µM (inactive) with MDA-N; > 100 µM (inactive) with SN12C. The GI50 in the assay with HOP-92, in the assay on SW-620, in the assay on HL-60, in the assay with PC-3, in the assay on UACC-62 and in the assay with UACC-257 was > 100 µM (inactive) throughout. Also, the GI50 in the assay on SNB-75 and with SR was > 100 µM (inactive) throughout.

`N=c1c2c(=S)n(-c3ccccc3)c(=S)n(-c3ccccc3)c2nc(SCCN2CCCC2)n1-c1ccccc1`: the GI50 with KM12 is 5.2 µM (inactive); with NCI-H23, 2.9 µM (inactive); in the assay on DU-145, 1.76 µM (inactive); in the assay on SK-OV-3, 12.6 µM (inactive); in the assay on IGROV-1 it was 1.77 µM (inactive); with HT-29 it was 1.81 µM (inactive). Moreover, the GI50 with A549 was 2.39 µM (inactive); in the assay with TK-10, 1.59 µM (inactive); with HCT-15, 1.6 µM; with SF-539, 5.02 µM (inactive); in the assay with MDA-N it was 2.05 µM (inactive); in the assay on SN12C, 1.86 µM (inactive). Moreover, the GI50 with HOP-92 is 1.71 µM (inactive); with SW-620, 1.76 µM (inactive); in the assay on HL-60, 0.183 µM (active); in the assay on PC-3, 1.75 µM (inactive); with UACC-62 it was 1.63 µM (inactive); in the assay with UACC-257 it was 1.61 µM (inactive). The GI50 was 2.66 µM (inactive) in the assay with SNB-75 and 0.136 µM (active) in the assay with SR.

Take `O=c1cc(-c2ccccc2)oc2c1ccc1nc3ccccc3c(O)c12`: the GI50 in the assay with KM12 was 16.7 µM (inactive); in the assay with NCI-H23, 89.1 µM (inactive); in the assay with DU-145, 61.2 µM (inactive); in the assay with SK-OV-3, 43.7 µM (inactive); in the assay with IGROV-1, > 100 µM (inactive); in the assay on HT-29, > 100 µM (inactive). Besides, the GI50 in the assay with A549 was 45.1 µM (inactive); in the assay on TK-10, 60.1 µM (inactive); with HCT-15 it was 42.3 µM; with SF-539 it was 33 µM (inactive); with MDA-N, > 100 µM (inactive); in the assay with SN12C it was 66.1 µM (inactive). Also, the GI50 in the assay with HOP-92 was > 100 µM (inactive); in the assay on SW-620 it was > 100 µM (inactive); in the assay on HL-60 it was 59.7 µM (inactive); with PC-3, > 100 µM (inactive); with UACC-62, 67.1 µM (inactive); in the assay with UACC-257 it was > 100 µM (inactive). For the same compound, the GI50 with SNB-75 was 34.9 µM (inactive); with SR, 40.7 µM (inactive).

Turning to `OC(Cc1cnnc2ccccc12)C(Cl)(Cl)Cl` (stereo not given), the GI50 in the assay with KM12, in the assay on NCI-H23, with DU-145, in the assay with SK-OV-3, with IGROV-1 and with HT-29 was > 10 µM (inactive) in each case. Further, the GI50 was > 10 µM (inactive) with A549; > 10 µM (inactive) with TK-10; greater than 10 µM in the assay with HCT-15; > 10 µM (inactive) in the assay with SF-539; > 10 µM (inactive) in the assay with MDA-N; > 10 µM (inactive) in the assay on SN12C. Also, the GI50 in the assay on HOP-92, in the assay with SW-620, in the assay with HL-60, with PC-3, with UACC-62 and with UACC-257 was > 10 µM (inactive) in each case. Moreover, the GI50 in the assay with SNB-75 and in the assay with SR was > 10 µM (inactive) throughout.
